Experimental data published in patent US12624034B2, “Non-covalent modifiers of AKT1 and uses thereof” (Terremoto Biosciences, Inc., priority 2023, dated 2026).
Like-named read-outs stand apart in the source and are kept apart here.

Tests used:
AKT1 E17K = biological target: T1, AKT1 E17K (Homo sapiens, UniProt P31749, E17K); test: Live cell AKT1 E17K target engagement by NanoBRET competitive probe displacement in HEK293 cells; type: binding; conditions: 2 h at 37° C.
T1 construct: expressed in transfected cells; host or cells: HEK293
Procedure: Determining live cell AKT1 E17K, AKT1 WT, and AKT2 target engagement by NanoBRET competitive probe displacement. Live cell target engagement assays were performed as described (Vasta, J. D. et al. Cell Chem Biol 2018, 25(11), 206-214). Briefly, HEK293 cells were transfected with plasmids encoding kinase-NanoLuciferase fusion proteins overnight. Cells were then treated with serial dilutions of compound and an ˜EC50 concentration of fluorescently-tagged ATP-competitive tracer (Promega). After incubation for 2 h at 37° C., luciferase substrate and extracellular luciferase inhibitor were added to all wells, and luminescent intensity at 460 nm and 600 nm were measured on a multimode plate-reader. The ratio of E600/E460 was calculated to give the tracer engagement signal (BRET). IC50 values were calculated by fitting BRET values to a log(inhibitor) vs. response Hill equation.

[1] = system: LAPC4 prostate cancer cells, which express the AKT1 E17K allele; test: Antiproliferative effects in LAPC4 cells (CellTiter Glo, 72 h); type: cell-based; conditions: Homo sapiens, LAPC4, 72 h, read-out: LAPC4 proliferation IC50
Procedure: Antiproliferative Effects in LAPC4 Cells.
LAPC4 prostate cancer cells (Klein, K. A. et al. Nat Med 1997, 3, 402-408), which express the AKT1 E17K allele, were grown in IMDM media (Hyclone) supplemented with 12% FBS+1% P/S. To assess compound effects on growth, 1,000 cells/well were seeded in 384 well assay plates, incubated with compound dilutions dissolved in DMSO. After 72 h, intracellular ATP content was assessed with CellTiter Glo reagent (Promega) according to the manufacturer's instructions. IC50 values were calculated by fitting luminescence values to a log(inhibitor) vs. response Hill equation.

AKT2 = biological target: T2, AKT2 (Homo sapiens, UniProt P31751); test: Live cell AKT2 target engagement by NanoBRET competitive probe displacement in HEK293 cells; type: binding; conditions: 2 h at 37° C., read-out: AKT2 IC50
T2 construct: expressed in transfected cells; host or cells: HEK293

AKT1 WT = biological target: T3, AKT1 WT (Homo sapiens, UniProt P31749); test: Live cell AKT1 WT target engagement by NanoBRET competitive probe displacement in HEK293 cells; type: binding; conditions: 2 h at 37° C., read-out: AKT1 WT IC50
T3 construct: expressed in transfected cells; host or cells: HEK293

[2] = NanoBRET live cell target engagement, HEK293 cells
[3] = NanoBRET competitive probe displacement, live HEK293 cells

T3 sequence (P31749 whole entry): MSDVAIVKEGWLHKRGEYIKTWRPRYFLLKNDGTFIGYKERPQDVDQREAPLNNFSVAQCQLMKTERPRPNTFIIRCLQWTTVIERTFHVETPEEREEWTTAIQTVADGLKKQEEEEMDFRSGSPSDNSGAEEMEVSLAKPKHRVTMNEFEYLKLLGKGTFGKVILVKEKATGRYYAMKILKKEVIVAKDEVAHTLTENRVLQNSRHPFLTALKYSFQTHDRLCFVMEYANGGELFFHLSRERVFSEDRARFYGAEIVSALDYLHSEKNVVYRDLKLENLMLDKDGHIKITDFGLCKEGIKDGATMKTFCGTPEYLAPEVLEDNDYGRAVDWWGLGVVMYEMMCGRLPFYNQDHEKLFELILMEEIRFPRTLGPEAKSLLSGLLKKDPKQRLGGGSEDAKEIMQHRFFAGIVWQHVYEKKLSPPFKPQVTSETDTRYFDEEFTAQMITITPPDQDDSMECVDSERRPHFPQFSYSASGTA
T1 sequence (P31749 whole entry E17K): as the sequence (P31749 whole entry) above, with E17K counted along it
T2 sequence (P31751 whole entry): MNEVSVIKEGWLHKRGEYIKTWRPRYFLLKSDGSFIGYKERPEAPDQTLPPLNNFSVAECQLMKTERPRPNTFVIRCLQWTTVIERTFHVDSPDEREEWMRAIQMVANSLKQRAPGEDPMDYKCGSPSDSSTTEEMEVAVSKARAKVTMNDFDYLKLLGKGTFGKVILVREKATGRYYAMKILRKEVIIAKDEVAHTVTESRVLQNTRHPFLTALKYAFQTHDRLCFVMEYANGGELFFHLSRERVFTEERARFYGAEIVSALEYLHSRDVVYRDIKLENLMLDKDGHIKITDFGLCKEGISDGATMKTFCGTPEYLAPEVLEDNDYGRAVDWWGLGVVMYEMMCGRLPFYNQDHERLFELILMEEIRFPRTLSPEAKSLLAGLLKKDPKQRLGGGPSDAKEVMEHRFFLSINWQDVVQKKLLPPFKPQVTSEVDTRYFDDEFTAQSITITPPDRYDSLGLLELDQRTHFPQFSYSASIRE

Row | IC50 (AKT1 E17K; [2]) | IC50 [1] | IC50 (AKT2; [2]) | IC50 (AKT1 WT; [2]) | IC50 (AKT1 E17K; [3]) | IC50 (AKT2; [3]) | IC50 (AKT1 WT; [3]) | Compound
1 | 0.0395 µM | 2.23 µM | 0.608 µM | 0.0237 µM |  |  |  | CCc1cn([C@H]2CCc3cc(-n4c(-c5cccnc5N)nc5ccc(-n6cccn6)nc54)ccc32)nn1 [Compound 285]
2 |  | 2.73 µM |  |  | 0.196 µM | 0.423 µM | 0.0149 µM | Nc1ncccc1-c1nc2ccc(-n3cccn3)nc2n1-c1ccc2c(c1)CC[C@@H]2NC1CCc2cnccc21 (single isomer, unassigned) [Compound 474]
3 | > 1 µM | > 10 µM | 4.56 µM | 0.137 µM |  |  |  | Nc1ncccc1-c1nc2ccc(-n3cccn3)nc2n1-c1ccc2c(c1)CC[C@@H]2NC(=O)Cc1ccn[nH]1 [Compound 51, (S)—N-(5-(2-(2-aminopyridin-3-yl)-5-(1H-pyrazol-1-yl)-3H-imidazo[4,5-b]pyridin-3-yl)-2,3-dihydro-1H-inden-1-yl)-2-(1H-pyrazol-5-yl)acetamide]
4 | 0.172 µM | 1.77 µM | 0.295 µM | 0.0197 µM |  |  |  | Cc1cc(C(=O)N[C@H]2CCc3cc(-n4c(-c5cccnc5N)nc5ccc(-n6cccn6)nc54)ccc32)n[nH]1 [Compound 4, (S)—N-(5-(2-(2-aminopyridin-3-yl)-5-(1H-pyrazol-1-yl)-3H-imidazo[4,5-b]pyridin-3-yl)-2,3-dihydro-1H-inden-1-yl)-5-methyl-11H-pyrazole-3-carboxamide]
5 | > 1 µM | > 10 µM | 2.85 µM | 0.155 µM |  |  |  | Nc1ncccc1-c1nc2ccc(-n3cccn3)nc2n1-c1ccc2c(c1)CC[C@@H]2NC(=O)Cc1cccnc1 [Compound 48, (S)—N-(5-(2-(2-aminopyridin-3-yl)-5-(1H-pyrazol-1-yl)-3H-imidazo[4,5-b]pyridin-3-yl)-2,3-dihydro-1H-inden-1-yl)-2-(pyridin-3-yl)acetamide]
6 | 0.211 µM | 5.19 µM | 0.754 µM | 0.0492 µM |  |  |  | Cn1cc(C(=O)N[C@H]2CCc3cc(-n4c(-c5cccnc5N)nc5ccc(-n6cccn6)nc54)ccc32)cn1 [Compound 39, (S)—N-(5-(2-(2-aminopyridin-3-yl)-5-(1H-pyrazol-1-yl)-3H-imidazo[4,5-b]pyridin-3-yl)-2,3-dihydro-1H-inden-1-yl)-1-methyl-1H-pyrazole-4-carboxamide]
7 | 0.0144 µM | 0.631 µM | 0.0407 µM | 0.00284 µM |  |  |  | Nc1ncccc1-c1nc2ccc(-n3cccn3)nc2n1-c1ccc2c(c1)CC[C@@H]2NC(=O)c1ccc(O)cc1 [Compound 42, (S)—N-(5-(2-(2-aminopyridin-3-yl)-5-(1H-pyrazol-1-yl)-3H-imidazo[4,5-b]pyridin-3-yl)-2,3-dihydro-1H-inden-1-yl)-4-hydroxybenzamide]
8 | 0.052 µM | 1.44 µM | 0.431 µM | 0.0132 µM |  |  |  | Nc1ncccc1-c1nc2ccc(-n3cccn3)nc2n1-c1ccc2c(c1)CC[C@@H]2NC(=O)c1ccn(C(F)F)n1 [Compound 174]
9 | 0.0842 µM | 1.31 µM | 0.0689 µM | 0.00586 µM |  |  |  | Nc1ncccc1-c1nc2ccc(-n3cccn3)nc2n1-c1ccc2c(c1)CC[C@@H]2NC(=O)c1ccnc2occc12 [Compound 282]
10 | 0.0301 µM | 1.17 µM | 0.0574 µM | 0.00636 µM |  |  |  | N#Cc1ccc(C(=O)N[C@H]2CCc3cc(-n4c(-c5cccnc5N)nc5ccc(-n6cccn6)nc54)ccc32)cc1 [Compound 41, N-[(1S)-5-[2-(2-aminopyridin-3-yl)-5-(pyrazol-1-yl)imidazo[4,5-b]pyridin-3-yl]-2,3-dihydro-1H-inden-1-yl]-4-cyanobenzamide]
11 |  | 0.285 µM |  |  | 0.0236 µM | 0.351 µM | 0.00537 µM | Nc1ncccc1-c1nc2ccc(-n3nccn3)nc2n1-c1ccc2c(c1)CC[C@@H]2NC(=O)c1ccc(C2CC2)nc1 [Compound 491]
12 | 0.472 µM | 2.25 µM | 2.33 µM | 0.0837 µM |  |  |  | CC(C)(C)c1cn([C@H]2CCc3cc(-n4c(-c5cccnc5N)nc5ccc(-n6cccn6)nc54)ccc32)nn1 [Compound 320]
13 | 0.408 µM | 8.43 µM | 0.343 µM | 0.0113 µM |  |  |  | Nc1ncccc1-c1nc2ccc(-n3cccn3)nc2n1-c1ccc2c(c1)CC[C@@H]2NC(=O)c1ccnc2c1CCO2 [Compound 225]
14 | 0.0923 µM | 4.15 µM | 0.546 µM | 0.0131 µM |  |  |  | Cc1ncc(F)cc1C(=O)N[C@H]1CCc2cc(-n3c(-c4cccnc4N)nc4ccc(-n5nccn5)nc43)ccc21 [Compound 382]
15 | 0.179 µM | 1.66 µM | 0.307 µM | 0.0108 µM |  |  |  | Cn1ccc2c(C(=O)N[C@H]3CCc4cc(-n5c(-c6cccnc6N)nc6ccc(-n7cccn7)nc65)ccc43)[nH]cc2c1=O [Compound 6, (S)—N-(5-(2-(2-aminopyridin-3-yl)-5-(1H-pyrazol-1-yl)-3H-imidazo[4,5-b]pyridin-3-yl)-2,3-dihydro-1H-inden-1-yl)-5-methyl-4-oxo-4,5-dihydro-2H-pyrrolo[3,4-c]pyridine-1-carboxamide]
16 | 0.137 µM | 8.49 µM | 0.713 µM | 0.126 µM |  |  |  | Nc1ncccc1-c1nc2ccc(-n3cccn3)nc2n1-c1ccc2c(c1)CC[C@@H]2NC(=O)c1ccc2oncc2c1 [Compound 20, (S)—N-(5-(2-(2-aminopyridin-3-yl)-5-(1H-pyrazol-1-yl)-3H-imidazo[4,5-b]pyridin-3-yl)-2,3-dihydro-1H-inden-1-yl)benzo[d]isoxazole-5-carboxamide]
17 | 0.32 µM | 2.6 µM | 0.118 µM | 0.00729 µM |  |  |  | CN(C)c1ccc(F)c(C(=O)N[C@H]2CCc3cc(-n4c(-c5cccnc5N)nc5ccc(-n6cccn6)nc54)ccc32)c1 [Compound 7, N—{(S)-5-[2-(2-amino-3-pyridyl)-5-(1-pyrazolyl)-3H-1,3,4-triazainden-3-yl]-1-indanyl}5-(dimethylamino)-2-fluorobenzamide]
18 | 0.0229 µM | 1.29 µM | 0.264 µM | 0.0145 µM |  |  |  | Nc1ncccc1-c1nc2ccc(-n3cccn3)nc2n1-c1ccc2c(c1)CC[C@@H]2NC(=O)c1cncs1 [Compound 14, (S)—N-(5-(2-(2-aminopyridin-3-yl)-5-(1H-pyrazol-1-yl)-3H-imidazo[4,5-b]pyridin-3-yl)-2,3-dihydro-1H-inden-1-yl)thiazole-5-carboxamide]
19 | 0.0108 µM | 0.523 µM | 0.0558 µM | 0.00297 µM |  |  |  | Cn1c(C(=O)N[C@H]2CCc3cc(-n4c(-c5cccnc5N)nc5ccc(-n6cccn6)nc54)ccc32)cc2ccccc2c1=O [Compound 8, N—{(S)-5-[2-(2-amino-3-pyridyl)-5-(1-pyrazolyl)-3H-1,3,4-triazainden-3-yl]-1-indanyl}-2-methyl-1-oxo-1,2-dihydro-3-isoquinolinecarboxamide]
20 | > 1 µM | 9.3 µM | 1.41 µM | 0.129 µM |  |  |  | Nc1ncccc1-c1nc2ccc(-n3cccn3)nc2n1-c1ccc2c(c1)CC[C@@H]2NC(=O)COc1ccon1 [Compound 5, (S)—N-(5-(2-(2-aminopyridin-3-yl)-5-(1H-pyrazol-1-yl)-3H-imidazo[4,5-b]pyridin-3-yl)-2,3-dihydro-1H-inden-1-yl)-2-(isoxazol-3-yloxy)acetamide]
21 | > 1 µM | > 10 µM | > 10 µM | 0.39 µM |  |  |  | COC1(C(F)F)CC(C(=O)N[C@H]2CCc3cc(-n4c(-c5cccnc5N)nc5ccc(-n6cccn6)nc54)ccc32)C1 (single isomer, unassigned) [Compound 10]
22 | 0.142 µM | 1.12 µM | 0.118 µM | 0.0181 µM |  |  |  | Nc1ncccc1-c1nc2ccc(-n3ccc(F)n3)nc2n1-c1ccc2c(c1)CC[C@@H]2NC(=O)c1ccc(C(F)F)nc1 [Compound 53, (S)—N-(5-(2-(2-aminopyridin-3-yl)-5-(3-fluoro-1H-pyrazol-1-yl)-3H-imidazo[4,5-b]pyridin-3-yl)-2,3-dihydro-1H-inden-1-yl)-6-(difluoromethyl)nicotinamide]
23 | 0.232 µM | 6.36 µM | 0.846 µM | 0.0551 µM |  |  |  | Cn1cc(C(=O)N[C@H]2CCc3cc(-n4c(-c5cccnc5N)nc5ccc(-n6cccn6)nc54)ccc32)ccc1=O [Compound 24, (S)—N-(5-(2-(2-aminopyridin-3-yl)-5-(1H-pyrazol-1-yl)-3H-imidazo[4,5-b]pyridin-3-yl)-2,3-dihydro-1H-inden-1-yl)-1-methyl-6-oxo-1,6-dihydropyridine-3-carboxamide]
